# Source: patent publication US11008361B2, “Liver-specific delivery-based anti-hepatitis C prodrug nucleoside cyclo-phosphate compound and uses thereof” (priority 2017, dated 2021)
# Tests used:
# rat hepatocytes = conditions: lamivudine triphosphate used as a reference; cited from earlier work
# [1] = system: human liver microsome (HLM); test: Human liver microsomal metabolism in vitro (release of 2FM-UMP); type: in vitro ADME; conditions: formation of 2FM-UMP, versus other candidate compounds of Table 3
# From the text: The human liver microsome (HLM) used in this test was purchased from In Vitro Technologies (IVT) with a batch number of SSP X008070, which was a mixed liver microsome extracted from the liver tissues of 150 donors. The product description recorded that the metabolic activity of CYP3A4 in this batch of the human liver microsomes was 1.734 nmol/mg/min (the rate at which testosterone is metabolized to produce 6-β testosterone). The test compound was synthesized by Zhejiang Plato Pharmaceutical Technology Co., Ltd., and dissolved in methanol to prepare a storage solution having a concentration of 25 mM. The enzymatic reaction was carried out in a 100 mM KH2PO4 buffer solution (pH 7.4) at a test compound concentration of 25 μM and a human liver microsome concentration of 2 mg/ml. The reaction was initiated by the addition of NADPH (final concentration 2 mM). After reacting for 5 min in a constant temperature shaking water bath, the reaction was terminated by the rapid addition of methanol at a volume of 1.5 times that of the reaction mixture. The reaction solution was centrifuged at a maximum speed of 13,600 rpm using an Eppendorf bench top centrifuge for 20 min, and the supernatant was taken. And then the supernatant was dried by a nitrogen blower and redissolved in mobile phase A (aqueous solution containing 5 mM ammonium acetate and 0.05% formic acid v/v). The resulting sample was analyzed by LC-MS/MS (Waters, Acquity UPLC HSS T3 column).
# [2] = Compound tissue distribution experiment in rats (metabolites 2FM-UR, 2FM-UMP, 2FM-UTP by LC-MS/MS); type: in vivo, Sprague Dawley rats; conditions: rat; for 2FM-UTP released in liver versus corresponding time points of sofosbuvir: 30 mg/Kg oral, p<0.01, FIG. 2; for 2FM-UMP released in the heart versus sofosbuvir: p<0.01, FIGS. 3A-3B; for Active molecule 2FM-UTP in the blood and heart: lower limit of quantitation 5 ng/mL or 5 ng/g
# Method: Sprague Dawley rats, male, weighing 180-300 g, were provided by Shanghai Xipuer-Beikai Experimental Animal Co., Ltd. Male animals were allowed to adapt to the environment for more than 3 days, and fasted for 12 hours before the experiment, but were free to drink water. PA2020, PA2024, PA2029 and sofosbuvir were respectively dissolved in a mixed solvent of Cremophor EL, ethanol and normal saline at a volume ratio of 10:10:80 to prepare corresponding solutions. Before the administration, the animals' weight was checked to determine whether the rats met the experimental requirements. Twelve rats were selected for grouping, 2 rats in each group, and 30 mg/kg of a drug solution was administered intragastrically to the rats. Samples were respectively collected at 0.5 h, 1 h, 3 h, 6 h, 12 h and 24 h after the administration. After the rats were euthanized with carbon dioxide, the blood was collected from the heart and stored in heparin anticoagulation tubes. The blood was centrifuged at 6,000 rpm and 4° C. for 5 min, and the supernatant plasma was taken and stored in dry ice. The kidney, liver and heart of the rats were collected and rinsed with normal saline pre-cooled at 4° C. and stored in dry ice after the water was drained. After the experiment, the samples were stored in a −80° C. refrigerator.
# Due to the difference in polarity, 2FM-UR, 2FM-UMP and 2FM-UTP were separated and detected using different methods, so that the used LC-triple quadrupole mass spectrometry detectors, the pretreatment conditions, chromatographic and mass spectrometric conditions varied among these compounds.
# In the ice bath, 50 μL of plasma was first mixed with 50 μL of internal standard solution (10% trichloroacetic acid solution of tenofovir at 500 ng/mL). After centrifugation at 13,000 rpm and 4° C. for 10 min, 20 μL of the supernatant was mixed with 180 μL of water, and 5 μL of the resulting solution was injected and analyzed by LC-MS/MS.
# The kidney, liver and heart tissue were mixed with a buffer in a volume ratio of 1:5 and fully disrupted in the ice bath. 20 μL of the tissue homogenate was mixed with 20 μL of the internal standard solution (500 ng/mL of tenofovir in 10% trichloroacetic acid solution). After centrifugation at 13,000 rpm for 10 min at 4° C., 20 μL of the supernatant was mixed with 180 μL of water, and 5 μL of the resulting solution was injected and analyzed by LC-MS/MS.
# LC-MS/MS-AJ (Triple Quad 5500, AB SCIEX) was used for sample analysis. Column: Acquity UPLC HSS T3 (2.1×50 mm, […]); column temperature: 40° C.; flow rate: 0.5 mL/min. Mobile phase A: 0.1% aqueous formic acid, mobile phase B: acetonitrile solution. Mass spectrometry conditions corresponding to the internal standard: electrospray ionization (ESI) positive ion mode, multiple reaction monitoring (MRM) monitoring ion pair m/z: 288/176 (tenofovir), 261/113 (2FM-UR); the temperature was 500° C.; the scanning time was 0.03 s; the collision energy was 15V.
# In the ice bath, 30 μL of plasma was first mixed with 30 μL of internal standard solution (5% trichloroacetic acid solution of 100 ng/mL tolbutamide). After centrifugation at 13,000 rpm for 10 min at 4° C., 40 μL of the supernatant was mixed with 80 μL of water, and 5 μL of the injection was analyzed.
# Kidney, liver, heart tissue: in the ice bath, tissue and 5 volumes of homogenization buffer of organ tissues (1.75 mL of methanol, 5 μL of 50% KOH solution and 0.75 mL of 268 mM EDTA solution, pH=8) were fully disrupted and mixed. 60 μL of tissue homogenate was mixed with 60 μl of internal standard solution (5% trichloroacetic acid solution of 100 ng/mL tolbutamide). After centrifugation at 13,000 rpm for 10 minutes at 4° C., 40 μL of the supernatant was mixed with 80 μL of water, and 5 μL of the injection was analyzed.
# LC-MS/MS-AJ (Triple Quad 5500, AB SCIEX) was used for sample analysis. Column: ACE 3 AQ (2.1×50 mm); column temperature: 55° C.; flow rate: 0.45 mL/min. […]
# [3] = 30 mg/kg intragastric, within 24 h
# [4] = 30 mg/kg intragastric, within 24 h, plasma
# [5] = same dose (30 mg/kg), plasma, relative to sofosbuvir
SMILES,Corresponding active triphosphate compound produced in rat hepatocytes (rat hepatocytes) [nmol/g],Transformation rate relative to other candidate compounds [1],2FM-UTP released in liver versus corresponding time points of sofosbuvir [2],"Exposure amount of 2FM-UMP in liver (AUC0-t) [2, 3] [ng·h/g]","Exposure amount of 2FM-UTP in liver (AUC0-t) [2, 3] [ng·h/g]","Exposure amount of 2FM-UMP in plasma (AUC0-t) [2, 4] [ng·h/g]","2FM-UMP released in the heart versus sofosbuvir ([2]; 30 mg/kg, heart)",Active molecule 2FM-UTP in the blood and heart ([2]; 30 mg/kg),"2FM-UR released in the heart versus equivalent dose of sofosbuvir ([2]; 30 mg/kg, heart, p<0.01, FIGS. 4A-4B)","2FM-UMP concentration in plasma as fraction of sofosbuvir [2, 5]","2FM-UR concentration in plasma relative to sofosbuvir [2, 5]","Exposure amount of 2FM-UMP in heart (AUC0-t) ([2]; 30 mg/kg intragastric, within 24 h, heart, N.D. = below 5 ng/g or 5 ng/mL) [ng·h/g]"
CCC(=O)O[C@@H]1[C@@H](COP2(=O)OCC[C@H](c3cccc(Cl)c3)O2)O[C@@H](n2ccc(=O)[nH]c2=O)[C@]1(C)F (stereo partly drawn),87.8,–,–,–,–,–,–,–,–,–,–,–
C[C@@]1(F)[C@H](O)[C@@H](COP2(=O)OCC[C@H](c3cc(F)cc(Cl)c3)O2)O[C@H]1n1ccc(=O)[nH]c1=O (stereo partly drawn) [PA2020],–,almost more than twice,significantly higher,102822,26682,439,less,could not be detected,–,–,–,–
C[C@@]1(F)[C@H](O)[C@@H](COP2(=O)OCC[C@H](c3cc(Cl)cc(Cl)c3)O2)O[C@H]1n1ccc(=O)[nH]c1=O (stereo partly drawn) [PA2024],–,almost more than twice,significantly higher,65242,9591,105,less,could not be detected,–,–,–,–
C[C@@]1(F)[C@H](O)[C@@H](COP2(=O)OCC[C@H](c3cc(Cl)ccc3F)O2)O[C@H]1n1ccc(=O)[nH]c1=O (stereo partly drawn) [PA2029],–,almost more than twice,significantly higher,110339,11820,1451,less,could not be detected,less,¼,approximately half,–
"CC(C)OC(=O)[C@H](C)N[P@](=O)(OC[C@H]1O[C@@H](n2ccc(=O)[nH]c2=O)[C@](C)(F)[C@@H]1O)Oc1ccccc1 [SFB, sofosbuvir, reference compound]",–,–,–,27128,2691,5680,–,could not be detected,–,–,–,417
